Data: ChEMBL document CHEMBL6083195, “Cornulacin: a new isoflavone from Cornulaca monacantha and its isolation, structure elucidation and cytotoxicity through EGFR-mediated apoptosis” (RSC Med Chem, 2024)

Tests used:
PANC-1 = experiment: Cytotoxicity against human PANC-1 cells by MTT assay; assay type: functional, cell-based
A2780 [1] = experiment: Cytotoxicity against human A2780 cells by MTT assay; assay type: functional, cell-based
A2780 [2] = experiment: Induction of apoptosis in human A2780 cells assessed as total apoptotic cell death at IC50 incubated for 48 hrs by Annexin V-FITC/PI staining based flow cytometry (reference value: 0.955 %); assay type: functional
A2780 [3] = experiment: Induction of apoptosis in human A2780 cells assessed as fold increase in P53 mRNA level at IC50 incubated for 48 hrs by RT-PCR analysis relative to control; assay type: functional
A2780 [4] = experiment: Induction of apoptosis in human A2780 cells assessed as necrotic cells at IC50 incubated for 48 hrs by Annexin V-FITC/PI staining based flow cytometry (reference value: 1.52 %); assay type: functional
A2780 [5] = experiment: Induction of cell cycle arrest in human A2780 cells assessed as accumulation at G1 phase at IC50 incubated for 48 hrs by flow cytometry (reference value: 41.8 %); assay type: functional
A2780 [6] = experiment: Induction of apoptosis in human A2780 cells assessed as fold increase in caspase-8 mRNA level at IC50 incubated for 48 hrs by RT-PCR analysis relative to control; assay type: functional
A2780 [7] = experiment: Induction of cell cycle arrest in human A2780 cells assessed as accumulation at S phase at IC50 incubated for 48 hrs by flow cytometry (reference value: 30.6 %); assay type: functional
A2780 [8] = experiment: Induction of apoptosis in human A2780 cells assessed as fold increase in caspase-9 mRNA level at IC50 incubated for 48 hrs by RT-PCR analysis relative to control; assay type: functional
A2780 [9] = experiment: Induction of apoptosis in human A2780 cells assessed as fold increase in caspase-3 mRNA level at IC50 incubated for 48 hrs by RT-PCR analysis relative to control; assay type: functional
A2780 [10] = experiment: Induction of cell cycle arrest in human A2780 cells assessed as accumulation at G2/M phase at IC50 incubated for 48 hrs by flow cytometry (reference value: 27.5 %); assay type: functional
A2780 [11] = experiment: Induction of apoptosis in human A2780 cells assessed as fold increase in Bax mRNA level at IC50 incubated for 48 hrs by RT-PCR analysis relative to control; assay type: functional
A2780 [12] = experiment: Induction of apoptosis in human A2780 cells assessed as early apoptotic cells at IC50 incubated for 48 hrs by Annexin V-FITC/PI staining based flow cytometry (reference value: 0.72 %); assay type: functional
A2780 [13] = experiment: Induction of apoptosis in human A2780 cells assessed as fold decrease in Bcl-2 mRNA level at IC50 incubated for 48 hrs by RT-PCR analysis relative to control; assay type: functional
A2780 [14] = experiment: Induction of apoptosis in human A2780 cells assessed as late apoptotic cells at IC50 incubated for 48 hrs by Annexin V-FITC/PI staining based flow cytometry (reference value: 0.23 %); assay type: functional
WISH = experiment: Cytotoxicity against human WISH cells by MTT assay; assay type: functional, cell-based
KB = experiment: Cytotoxicity against human KB cells; assay type: functional, cell-based

Compound: O=C(/C=C/c1ccc(O)c(O)c1)NCCc1ccc(O)cc1
- IC50 (PANC-1): 7.2 µM
- IC50 (A2780 [1]): 11.2 µM

Compound: COc1cc(/C=C/C(=O)NCCc2ccc(O)c(OC)c2)ccc1O
- IC50 (PANC-1): 7 µM
- IC50 (A2780 [1]): 2.9 µM

Compound: COc1cc(/C=C(\Oc2ccc(/C=C/C(=O)NCCc3ccc(O)cc3)cc2OC)C(=O)NCCc2ccc(O)cc2)ccc1O
- IC50 (PANC-1): 19.3 µM
- IC50 (A2780 [1]): 25.1 µM

Compound: COc1cc([C@H]2c3cc(O)c(OC)cc3/C(=C\C(=O)NCCc3ccc(O)cc3)[C@H]2C(=O)NCCc2ccc(O)cc2)ccc1O
- IC50 (PANC-1): 24.1 µM
- IC50 (A2780 [1]): 31.2 µM

Compound: COCc1c(O)cc2occ(-c3ccccc3O)c(=O)c2c1OC
- Activity (A2780 [2]): 43.65%
- fold change (FC) (A2780 [3]): 6.7
- Activity (A2780 [4]): 7.54%
- Activity (A2780 [5]): 46.2%
- fold change (FC) (A2780 [6]): 6.09
- Activity (A2780 [7]): 43.3%
- fold change (FC) (A2780 [8]): 8.08
- fold change (FC) (A2780 [9]): 8.1
- Activity (A2780 [10]): 10.48%
- IC50 (PANC-1): 6.4 µM
- IC50 (A2780 [1]): 2.1 µM
- fold change (FC) (A2780 [11]): 5.4
- Activity (A2780 [12]): 29.17%
- fold change (FC) (A2780 [13]): 0.3
- Activity (A2780 [14]): 14.48%
- IC50 (WISH): ≥ 100 µM

Compound: C#Cc1cccc(Nc2ncnc3cc(OCCOC)c(OCCOC)cc23)c1 [ERLOTINIB]
- IC50 (PANC-1): 2.17 µM
- IC50 (A2780 [1]): 1.13 µM

Compound: COc1cc(/C=C/C(=O)NCCc2ccc(O)cc2)ccc1O [N-TRANS-FERULOYL TYRAMINE]
- IC50 (PANC-1): 3.4 µM
- IC50 (A2780 [1]): 9.1 µM

Compound: COc1cc(OC)c(-c2coc3c4c(c(OC)cc3c2=O)OC(C)(C)C=C4)cc1OC
- IC50 (KB): 2000 nM
